Data published in patent publication US11857644B2, “Multi-signal fluorescent probe for early diagnosis of tumors, and preparation and use thereof” (Hunan Cancer Hospital, priority 2022, dated 2024).

Assays:
[1] = Fluorescence detection of Na2S2 by the probe (limit of detection); details: organic phase:aqueous phase (PBS) 5:5, room temperature
Experimental: (§1) The multi-signal fluorescent probe was dissolved with dimethyl sulfoxide (DMSO) to obtain a 1 mM probe solution. A 1 mM ONOO^− aqueous solution and a 1 mM Na2S2 aqueous solution were prepared.
(§2) 20 μL of the 1 mM probe solution, 980 μL of analytically pure CH3CN, the required amount of the 1 mM ONOO^− or Na2S2 aqueous solution and the required amount of phosphate buffered saline (PBS) were added into a 2 mL sample tube. A volume ratio of an organic phase to an aqueous phase was kept at 5:5 for all tests (a total volume of each test sample was 2 mL).
L of the 1 mM probe solution, 980 μL of analytically pure CH3CN, 20 μL of the 1 mM ONOO^− aqueous solution and 980 μL of PBS were added into a 2 mL sample tube. […] Then, the fluorescence emission intensity of the reaction mixture could be measured under the 350 nm excitation wavelength. […] Fluorescence spectra of the multi-signal fluorescent probe in the detection of peroxynitrite and sodium disulfide were shown in FIG. 2. […]
The multi-signal fluorescent probe for reactive oxygen was dissolved in a solution, in which a volume ratio of DMSO to the aqueous phase was 5:5. […] Accordingly, a specific analyte can be detected by the specific excitation and fluorescence emission signal. The ONOO^− and Na2S2 can be distinguished by using different excitation wavelengths and fluorescence emission signals. […]

[2] = Fluorescence detection of ONOO^− by the probe (limit of detection); details: organic phase:aqueous phase (PBS) 5:5, room temperature, 15 min
Experimental: as §1, §2
For example, when it was required to explore the fluorescence intensity of the multi-signal fluorescent probe after reacted with […] ONOO^−, the experiment was formulated as follows.
L of the 1 mM probe solution, 980 μL of analytically pure CH3CN, 20 μL of the 1 mM ONOO^− aqueous solution and 980 μL of PBS were added into a 2 mL sample tube. The reaction mixture was mixed evenly under shaking at room temperature for 15 min. Then, the fluorescence emission intensity of the reaction mixture could be measured under the 350 nm excitation wavelength. Other steps were performed as above. The limit of detection (LOD) for ONOO^− was 42.12 nM, and the LOD for Na2S2 was 38.45 nM. Fluorescence spectra of the multi-signal fluorescent probe in the detection of peroxynitrite and sodium disulfide were shown in FIG. 2. […]

[3] = Fluorescence response selectivity against other species; details: OH, t-BuO, 1O2, NO, GSH, Cys, Hcy, SO2, NAC, H2S, halides, amino acids, NaHS, NaHSO3, EtSH, PhSH, n-Butylamine, aniline
Experimental: Regarding a method for detecting ONOO^− and Na2S2 in cells, unless otherwise specified, a probe molecule is dissolved at room temperature for analytical detection, where a volume ratio of an organic phase to an aqueous phase is 5:5. The organic phase is acetonitrile (CH3CN), and the aqueous phase is formed by PBS (pH=7.4) and an aqueous solution of the analyte.
The multi-signal fluorescent probe for reactive oxygen was dissolved in a solution, in which a volume ratio of […] to the aqueous phase was 5:5. The multi-signal fluorescent probe emitted 492 nm green light under 380 nm excitation wavelength after reacted with ONOO^−, and emitted 548 nm yellow light under 410 nm excitation wavelength after reacted with Na2S2. Accordingly, a specific analyte can be detected by the specific excitation and fluorescence emission signal. The ONOO^− and Na2S2 can be distinguished by using different excitation wavelengths and fluorescence emission signals. […] The LOD for ONOO^− is 42.12 nM, and the LOD for Na2S2 is 38.45 nM. In summary, the multi-signal fluorescent probe can realize the high-sensitivity discrimination and detection of ONOO^− and Na2S2.

In the case of `CCN1c2ccccc2Sc2cc3c(Cl)cc(=O)oc3cc21` [multi-signal fluorescent probe, 4-chloro-11-ethylpyrano[2,3-b]phenothiazin-2(11H)-one], the “LOD for Na2S2” value [1] is reported as 38.45 nM, the “limit of detection (LOD) for ONOO^−” value [2] is reported as 42.12 nM and the “fluorescence response to interfering species” value [3] is reported as “no significant response”.
